Where two headings read alike, the source gives them in different places.
Legend:
[1] = Rat pharmacokinetic assay; format: in vivo
Method: Rat Pharmacokinetic Assay
Method: Reagent and Procedure by Hefei PreceDo Pharmaceuticals Co. Ltd.
Male Sprague-Dawley rats with 6-8 weeks of age were purchased from Beijing Vital River Laboratory Animal Technology Co., Ltd. Rats were randomly assigned with three rats per group. A single dose of compound 84 or 85 was administered by tail vein injection in iv group. In po group, compound 84 or 85 was orally. Blood samples (˜0.25 mL) were obtained by orbital venous plexus at 2 min (iv only), 5 min, 15 min, 1 h, 2 h, 4 h, 6 h, 8 h, 12 h and 24 h (po only) post dose. After centrifuged at 4000 rpm for 10 min at 4° C., plasma was collected and stored at −20° C. until determine by LC-MS/MS.

ITK = ITK (Homo sapiens (Human), UniProt Q08881); assay: In house ELISA kinase inhibition assay, ITK; format: biochemical; details: for IC50: in house ELISA; for Selectivity ratio: selectivity for BTK and ITK
ITK, sequence (Q08881 whole entry): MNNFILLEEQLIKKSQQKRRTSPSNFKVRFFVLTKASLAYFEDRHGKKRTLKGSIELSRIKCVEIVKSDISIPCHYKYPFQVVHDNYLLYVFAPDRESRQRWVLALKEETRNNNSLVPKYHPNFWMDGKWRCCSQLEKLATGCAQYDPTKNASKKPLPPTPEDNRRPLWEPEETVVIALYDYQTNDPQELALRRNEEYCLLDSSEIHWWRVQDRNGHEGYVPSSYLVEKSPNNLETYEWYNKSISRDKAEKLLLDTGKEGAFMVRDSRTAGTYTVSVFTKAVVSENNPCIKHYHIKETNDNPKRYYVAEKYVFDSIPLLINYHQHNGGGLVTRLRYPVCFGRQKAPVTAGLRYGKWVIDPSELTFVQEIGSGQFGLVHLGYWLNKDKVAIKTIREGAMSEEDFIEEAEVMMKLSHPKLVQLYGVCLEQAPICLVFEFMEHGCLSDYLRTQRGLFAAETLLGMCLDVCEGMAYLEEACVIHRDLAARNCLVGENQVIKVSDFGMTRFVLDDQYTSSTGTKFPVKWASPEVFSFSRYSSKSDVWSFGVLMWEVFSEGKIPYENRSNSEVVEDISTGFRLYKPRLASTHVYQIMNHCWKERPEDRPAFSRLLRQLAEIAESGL
Method: (§1) BTK inhibition Assay and selectivity Assay The assay was conducted either a by a third party (Reaction Biology Corporation, PA, USA) or in house.
(§2) b) In House Procedure for BTK, BMX, EGFR and ITK:
(§3) Kinase inhibitory activities of compounds were evaluated using the Enzyme-linked immunosorbent assay (ELISA). The kinase enzyme of BTK, BMX, EGFR and ITK were purchased from Carna Bioscience (Kobe, Japan). A total of 10 ng/mL antiphosphotyrosine (PY713) antibody (abcam, Cambridge Science Park, UK) was precoated in 96-well ELISA plates. The kinase enzymes in each reaction well were set to BTK (101.25 ng/mL), BMX (90 ng/mL), EGFR (90 ng/mL) or ITK (120 ng/mL) and incubated with indicated drugs in 1× reaction buffer (50 mmol/L HEPES pH 7.4, 20 mmol/L MgCl2, 0.1 mmol/L MnCl2, 1 mmol/L DTT) containing 20 μmol/L (the final concentration of substrate in ITK reaction was 30 μmol/L) substrate (NH2-[…]-biotin) at 25° C. for 1 h. Then, a total of 3 μmol/L ATP was added and the reaction was continued for 2 h. The products of reaction were transferred into 96-well ELISA plates containing antibody and incubated at 25° C. for 30 min. After incubation, the wells were washed with PBS and then incubated with horseradish peroxidase (HRP)-conjugated streptavidin. The wells were visualized using 3,3′,5,5′-tetramethylbenzidine (TMB), and chromogenic reaction was ended with 2 mol/L H2SO4, the absorbance was read with a multimode plate reader (PerkinElmer, USA) at 450 nm. IC50 values and curve fits were obtained using Prism (GraphPad Software). (Table I-IV)

TMD-8 = assay: In-vitro antitumor activity assay (CellTiter-Glo cell antiproliferative activity); format: cell-based; details: Homo sapiens, TMD8, TMD-8 cells, 72 h
Method: In-Vitro Antitumor Activity Assay
Method: Reagent and procedure by Hefei PreceDo pharmaceuticals Co. Ltd.
Cell antiproliferative activity was evaluated by the CellTiter-Glo (Promega, USA) assay. Make 1000× compounds solution in DMSO, add 1 μl 1000× compounds to […] growth medium to make 20× compounds. Dilute cell suspensions in growth medium to desired density and 95 μl were taken to 96-well plate. Add 5 μl 20× compounds into 96-well plate according to the plate map. Final DMSO concentration in each well was 0.1%. Then the cell was incubated at 37° C., 5% CO2 for 72 h. Equilibrate the assay plate to room temperature before measurement. Add 20 μl of CellTiter-Glo© Reagent into each well. Mix contents for 2 minutes on an orbital shaker to induce cell lysis. Incubate at room temperature for 10 minutes to stabilize luminescent signal. Record luminescence using EnVision Multilabel Reader (PerkinElmer). Cell viability (CV %) was calculated relative to vehicle (DMSO) treated control wells using following formula: Cell viability (%)=(RLU compound−RLU blank)/(RLU control−RLU blank)*100%. The IC50 values were calculated using GraphPad Prism 6.0 software, fitting to a 4-parameter equation to generate concentration response curves. All assays were conducted with three parallel samples and three repetitions.

BMX = BMX (Homo sapiens (Human), UniProt P51813); assay: In house ELISA kinase inhibition assay, BMX; format: biochemical; details: for IC50: in house ELISA; for Selectivity ratio: selectivity for BTK and BMX
BMX, sequence (P51813 whole entry): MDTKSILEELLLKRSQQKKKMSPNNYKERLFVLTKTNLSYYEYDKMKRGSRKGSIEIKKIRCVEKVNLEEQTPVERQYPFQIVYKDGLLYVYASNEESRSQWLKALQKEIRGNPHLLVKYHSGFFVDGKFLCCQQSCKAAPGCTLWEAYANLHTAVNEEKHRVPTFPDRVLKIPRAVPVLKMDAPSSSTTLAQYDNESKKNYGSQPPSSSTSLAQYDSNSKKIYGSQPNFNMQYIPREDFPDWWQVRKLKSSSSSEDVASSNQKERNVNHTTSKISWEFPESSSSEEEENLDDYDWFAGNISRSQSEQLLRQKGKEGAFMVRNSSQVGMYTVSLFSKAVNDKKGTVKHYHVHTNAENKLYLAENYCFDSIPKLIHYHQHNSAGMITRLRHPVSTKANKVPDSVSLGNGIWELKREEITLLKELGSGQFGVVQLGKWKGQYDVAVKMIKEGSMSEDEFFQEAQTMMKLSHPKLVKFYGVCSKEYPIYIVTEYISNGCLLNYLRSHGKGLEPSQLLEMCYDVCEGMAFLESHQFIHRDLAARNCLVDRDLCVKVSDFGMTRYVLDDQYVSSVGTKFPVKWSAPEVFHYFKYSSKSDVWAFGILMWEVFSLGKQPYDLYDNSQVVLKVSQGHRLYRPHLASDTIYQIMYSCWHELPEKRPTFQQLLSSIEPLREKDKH
Method: as §1, §2, §3

EGFR = EGFR (Homo sapiens (Human), UniProt P00533); assay: In house ELISA kinase inhibition assay, EGFR; format: biochemical; details: for IC50: in house ELISA; for Selectivity ratio: selectivity for BTK and EGFR
EGFR, sequence (P00533 25-1210): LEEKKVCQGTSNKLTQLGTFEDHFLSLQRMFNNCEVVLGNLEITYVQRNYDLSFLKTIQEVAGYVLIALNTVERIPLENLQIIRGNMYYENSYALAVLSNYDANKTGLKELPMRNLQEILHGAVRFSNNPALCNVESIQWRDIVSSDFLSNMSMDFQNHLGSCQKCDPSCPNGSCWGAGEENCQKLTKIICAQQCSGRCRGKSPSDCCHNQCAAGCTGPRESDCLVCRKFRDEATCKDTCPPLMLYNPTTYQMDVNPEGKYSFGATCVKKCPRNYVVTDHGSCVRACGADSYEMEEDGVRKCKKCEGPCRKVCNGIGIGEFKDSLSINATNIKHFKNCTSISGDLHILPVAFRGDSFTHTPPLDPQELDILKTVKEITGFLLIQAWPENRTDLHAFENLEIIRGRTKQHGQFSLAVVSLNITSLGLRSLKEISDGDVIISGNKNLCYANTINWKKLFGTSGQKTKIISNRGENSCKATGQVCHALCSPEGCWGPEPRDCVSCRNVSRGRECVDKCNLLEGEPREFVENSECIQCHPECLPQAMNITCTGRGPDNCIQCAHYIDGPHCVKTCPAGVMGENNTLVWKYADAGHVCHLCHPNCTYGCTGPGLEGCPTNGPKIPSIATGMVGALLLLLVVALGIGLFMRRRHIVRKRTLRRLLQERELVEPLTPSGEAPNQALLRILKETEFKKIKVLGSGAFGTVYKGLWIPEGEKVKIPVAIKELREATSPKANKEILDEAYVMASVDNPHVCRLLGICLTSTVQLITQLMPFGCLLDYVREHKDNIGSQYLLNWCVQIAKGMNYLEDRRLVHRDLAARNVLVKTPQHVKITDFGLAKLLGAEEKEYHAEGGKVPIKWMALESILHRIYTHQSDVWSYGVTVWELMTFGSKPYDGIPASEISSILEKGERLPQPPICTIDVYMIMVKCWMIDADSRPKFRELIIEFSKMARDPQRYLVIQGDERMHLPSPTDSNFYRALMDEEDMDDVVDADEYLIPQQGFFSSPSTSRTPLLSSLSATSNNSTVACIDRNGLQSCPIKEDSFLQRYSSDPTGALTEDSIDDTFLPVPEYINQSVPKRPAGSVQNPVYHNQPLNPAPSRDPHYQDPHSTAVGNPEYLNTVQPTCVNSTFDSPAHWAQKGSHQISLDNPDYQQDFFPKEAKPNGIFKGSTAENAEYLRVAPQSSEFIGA
Method: as §1, §2, §3

BTK = BTK (Homo sapiens (Human), UniProt Q06187); assay: In house ELISA kinase inhibition assay, BTK; format: biochemical; details: footnote b: from in house procedure (ELISA)
BTK, sequence (Q06187 whole entry): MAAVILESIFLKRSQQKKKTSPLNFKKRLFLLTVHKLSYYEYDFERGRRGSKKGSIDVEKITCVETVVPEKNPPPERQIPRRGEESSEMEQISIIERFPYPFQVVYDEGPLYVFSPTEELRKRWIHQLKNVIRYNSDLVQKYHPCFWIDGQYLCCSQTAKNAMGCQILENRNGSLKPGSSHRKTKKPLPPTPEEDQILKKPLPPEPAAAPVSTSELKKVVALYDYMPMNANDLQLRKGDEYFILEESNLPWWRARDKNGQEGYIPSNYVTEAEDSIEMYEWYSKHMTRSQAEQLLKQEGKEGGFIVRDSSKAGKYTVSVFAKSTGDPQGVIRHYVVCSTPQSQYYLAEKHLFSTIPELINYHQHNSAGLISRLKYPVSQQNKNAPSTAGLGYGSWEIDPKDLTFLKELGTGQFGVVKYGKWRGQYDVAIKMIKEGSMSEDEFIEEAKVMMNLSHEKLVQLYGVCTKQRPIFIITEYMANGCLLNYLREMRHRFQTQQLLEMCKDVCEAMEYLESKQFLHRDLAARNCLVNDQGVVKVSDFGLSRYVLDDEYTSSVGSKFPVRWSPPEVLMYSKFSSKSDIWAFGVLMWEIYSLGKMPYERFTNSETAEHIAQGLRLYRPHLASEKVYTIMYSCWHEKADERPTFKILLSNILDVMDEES
Summary of the method: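 ELISA with biotinylated peptide substrate at 20 μmol/L (ITK 30 μmol/L); kinases preincubated with compound 1 h at 25° C in HEPES pH 7.4, MgCl2, MnCl2, DTT, then 3 μmol/L ATP added for 2 h. Phosphoproduct captured on anti-phosphotyrosine antibody, detected with HRP-streptavidin/TMB at 450 nm; IC50 by curve fit.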

[2] = male, Sprague-Dawley, plasma, iv 5 mg/kg
[3] = male, Sprague-Dawley, plasma, iv 1 mg/kg

C=CC(=O)N1CCCC[C@H]1c1nc(-c2ccc(C(=O)Nc3cc(C(F)(F)F)ccn3)cc2)c(C(N)=O)n1N [Example 84, (S)-2-(1-acryloylpiperidin-2-yl)-1-amino-4-(4-((4-(trifluoromethyl)pyridin-2-yl)carbamoyl)phenyl)-1H-imidazole-5-carboxamide]
CL ([1]; iv 5 mg/kg): 13.4 mL/min/kg
T1/2 ([1]; iv 5 mg/kg): 1.32 h
Vd ([1]; iv 5 mg/kg): 1.50 L/kg
clearance [1, 2]: 13.4 mL/min/kg
half-life [1, 2]: 1.32 h
AUC ([1]; male, Sprague-Dawley, plasma, po 5 mg/kg, read-out: AUC): 2000 ng·h/mL
Cmax ([1]; male, Sprague-Dawley, plasma, po 5 mg/kg, read-out: Cmax): 501 ng/mL
AUC ([1]; po 5 mg/kg): 1996 ng·h/mL
Cmax ([1]; po 5 mg/kg): 501 ng/mL
F ([1]; po 5 mg/kg): 32.4%
T1/2 ([1]; po 5 mg/kg): 1.35 h
IC50 (ITK): 608 nM
Selectivity ratio (ITK): 175.6
IC50 (TMD-8): 24.5 nM
IC50 (BMX): 114 nM
Selectivity ratio (BMX): 33.0
IC50 (EGFR): 156 nM
Selectivity ratio (EGFR): 45
IC50 (BTK): 3.46 nM

CC#CC(=O)N1CCCC[C@H]1c1nc(-c2ccc(C(=O)Nc3cc(C(F)(F)F)ccn3)cc2)c(C(N)=O)n1N [Example 85, (S)-1-amino-2-(1-(but-2-ynoyl)piperidin-2-yl)-4-(4-((4-(trifluoromethyl)pyridin-2-yl)carbamoyl)phenyl)-1H-imidazole-5-carboxamide]
clearance [1, 3]: 50 mL/min/kg
half-life [1, 3]: 1.97 h
Vd ([1]; male, Sprague-Dawley, plasma, iv 1 mg/kg, read-out: Vd): 8.62 L/kg
half-life ([1]; male, Sprague-Dawley, plasma, po 10 mg/kg): 2.74 h
AUC ([1]; male, Sprague-Dawley, plasma, po 10 mg/kg, read-out: AUC): 3250 ng·h/mL
Cmax ([1]; male, Sprague-Dawley, plasma, po 10 mg/kg, read-out: Cmax): 723 ng/mL
AUC ([1]; po 10 mg/kg): 3247 ng·h/mL
F ([1]; po 10 mg/kg): 90.6%
T1/2 ([1]; po 10 mg/kg): 2.74 h
IC50 (ITK): 30000 nM
Selectivity ratio (ITK): 4115
IC50 (TMD-8): 54.3 nM
IC50 (BMX): 789 nM
Selectivity ratio (BMX): 108.2
IC50 (EGFR): 11800 nM
Selectivity ratio (EGFR): 1619
IC50 (BTK): 7.29 nM

Reference: US12291516B2, “Substituted 1-amino-1H-imidazole-5-carboxamide as Bruton's tyrosine kinase inhibitors” (Henan Zhiwei Biomedicine Co., Ltd., priority 2019, dated 2025)
